Laboratory results from patent US12691070B2, “Cationic lipids and preparation method thereof” (RiboX Therapeutics HK Limited, priority 2023, dated 2026).

Experiments:
[1] = LNP size and polydispersity index (PDI) by dynamic light scattering; type: physicochemical; settings: for Size: in nm (unit assumed)
In short: (§1)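 Ribogreen fluorescence with and without Triton X-100 gave encapsulation as 100% − (intact/lysed) signal; DLS size, PDI and zeta potential measured on a Zetasizer. Particles: 50:10:38.5:1.5 lipid mix, luciferase circRNA or mRNA, lipid:nucleotide 15 or 6, microfluidic assembly at pH 4.5, PBS-dialyzed.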

[2] = tested on: BALB/C mice; assay: Local tolerance determination by footpad injection; type: in vivo; settings: cirRNA (SEQ ID NO: 1) LNP, 0.175 mg*kg-1 subcutaneous into the footpad, 24 hours post minus prior
Description: 6-8 week old, female BALB/C mice were injected with 0.175 mg*kg-1 RNA LNPs by subcutaneous injection into the footpad. Prior to, and 24 hours post injections, injected footpad thickness was determined by a caliper.

[3] = tested on: Hep G2 cells; assay: In vitro expression of firefly-luciferase, Hep G2; type: cell-based
In short: (§2)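 First, cells were dosed with RNA lipid nanoparticles encoding firefly luciferase (100 ng/mL). Second, at 72 h they were washed and lysed. Third, lysate luciferase activity was read with a luminometer.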

[4] = tested on: BALB/C mice; assay: In vivo expression, whole-body luminescence (IVIS)
Description: 6-8 week old, female BALB/C mice were injected with 0.05 mg*kg-1 of RNA-LNPs encoding for firefly-luciferase by intravenous injection. At 6 hours post injection, animals were intraperitoneally injected with 15 mg/ml of Luciferin substrate and whole-body luminescence was determined by a bioluminescent in vivo imaging system (IVIS).

[5] = LNP zeta potential (Zetasizer); type: physicochemical
In short: as §1

[6] = tested on: RAW 264.7 cells; assay: In vitro expression of firefly-luciferase, RAW 264.7; type: cell-based
In short: as §2

[7] = RNA encapsulation efficacy by Quant-IT Ribogreen kit; type: physicochemical; settings: for Encapsulation Efficiency %: LNP with cirRNA (SEQ ID NO: 1); for Encapsulation Efficiency: LNP with mRNA (SEQ ID NO: 2)
In short: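 Dynamic light scattering and zeta potential measurements were run on PBS-dialyzed LNPs, which had been formed by microfluidic mixing at 12 ml/min with final lipid at 1.5 mM to 6 mM. RNA content and percent encapsulation were determined by Ribogreen with and without Triton X-100.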

[8] = tested on: MCP-I; assay: MCP-I cytokine elevation in serum; type: in vivo; settings: cirRNA (SEQ ID NO: 1) LNPs, mice
Description: 6-8 week old, female BALB/C mice were injected with 0.5 mg*kg-1 of RNA LNPs by intravenous injection. At 2 and 24 hours post injection, animals were bled and sera concentrations of MCP-I were determined by an immunoassay (Luminex).

[9] = tested on: Hep G2 cells; assay: In vitro toxicity (CellTiter-Glo cell viability), Hep G2; type: cell-based;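 further: percent of untreated cells luminescence signal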
In short: (§3)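 Viability after a 72 h incubation with 1 μg/mL RNA-LNP formulations was assessed luminometrically using CellTiter-Glo.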

[10] = tested on: RAW 264.7 cells; assay: In vitro toxicity (CellTiter-Glo cell viability), RAW 264.7; type: cell-based;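 further: percent of untreated cells luminescence signal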
In short: as §3

[11] = tested on: Aspartate Aminotransferase (AST); assay: Liver enzyme elevation in serum, AST; type: in vivo; settings: cirRNA (SEQ ID NO: 1) LNPs, BALB/C mice, intravenous 0.5 MPK
Description: (§4) 6-8 week old, female BALB/C mice were injected with 0.5 mg*kg-1 of RNA LNPs by intravenous injection. At 2 and 24 hours post injection, animals were bled and sera concentrations of Alanine Aminotransferase (ALT) and Aspartate Aminotransferase (AST) were determined by a blood chemistry analyzer.

[12] = tested on: Alanine Aminotransferase (ALT); assay: Liver enzyme elevation in serum, ALT; type: in vivo; settings: cirRNA (SEQ ID NO: 1) LNPs, BALB/C mice, intravenous 0.5 MPK
Description: as §4

[13] = cirRNA (SEQ ID NO: 1) LNPs, firefly-luciferase luminescence, Hep G2 cells
[14] = mRNA (SEQ ID NO: 2) LNP, 100 ng/mL, 72 hours post transfection, luciferase activity
[15] = cirRNA (SEQ ID NO: 1) LNPs, BALB/C mice
[16] = mRNA (SEQ ID NO: 2) LNP, 0.05 mg*kg-1 intravenous, 6 hours post injection
[17] = cirRNA (SEQ ID NO: 1) LNPs, firefly-luciferase luminescence, RAW 264.7 cells
[18] = cirRNA (SEQ ID NO: 1) LNPs, Hep G2 cells
[19] = mRNA (SEQ ID NO: 2) LNP, 1 μg/mL, 72 hours post transfection
[20] = cirRNA (SEQ ID NO: 1) LNPs, RAW 264.7 cells

| PDI ([1]; LNP with cirRNA (SEQ ID NO: 1)) | Size ([1]; LNP with cirRNA (SEQ ID NO: 1)) | PDI ([1]; LNP with mRNA (SEQ ID NO: 2)) | Size ([1]; LNP with mRNA (SEQ ID NO: 2)) | Zeta (mV) ([5]; LNP with cirRNA (SEQ ID NO: 1)) | Zeta (mV) ([5]; LNP with mRNA (SEQ ID NO: 2)) | Encapsulation Efficiency % [7] | Encapsulation Efficiency [7] | MCP-I in Sera 2 hours After 0.5 MPK Injection [8] | MCP-I in Sera 24 hours After 0.5 MPK Injection [8] | Compound | Footpad Thickness (24 h−0 h, mm) [2] | In vitro Expression HepG2 [3, 13] | In vitro Expression HepG2 [3, 14] | In vivo Expression (Whole Body) [4, 15] | In vivo Expression (Whole Body) [4, 16] | In vitro Expression RAW [6, 17] | In vitro Expression RAW [6, 14] | In vitro Viability HepG2 [9, 18] | In vitro Viability HepG2 [9, 19] | In vitro Viability RAW [10, 20] | further results |
| --- | --- | --- | --- | --- | --- | --- | --- | --- | --- | --- | --- | --- | --- | --- | --- | --- | --- | --- | --- | --- | --- |
| 0.13 | 91.13 | 0.1903 | 70.28 | 1.59 mV | 13.66 mV | 97% | 89% | 8335.00 pg/mL | 93.14 pg/mL | CCCCC/C=C\C/C=C\CCCCCCCCN(CCCCCC(=O)OCC(CCCCCCCC)CCCCCCCCCC)CCOC(=O)NCCN(C)C (stereo not drawn) [Lipid 75, 2-octyldodecyl 2-methyl-10-((9Z,12Z)-octadeca-9,12-dien-1-yl)-6-oxo-7-oxa-2,5,10-triazahexadecan-16-oate] | 0.85 mm | 1.94E+06 | 9.23E+06 | 9.85E+08 | 4.22E+08 | 2.08E+06 | 2.18E+06 | 85% | 95% | 75% | In vitro Viability RAW [10, 19]: 96%; AST in Sera (IU/L) 2 hours After 0.5 MPK Injection [11]: 279.87 IU/L; AST in Sera (IU/L) 24 hours After 0.5 MPK Injection [11]: 94.83 IU/L; ALT in Sera (IU/L) 2 hours After 0.5 MPK Injection [12]: 111.37 IU/L; ALT in Sera (IU/L) 24 hours After 0.5 MPK Injection [12]: 48.97 IU/L |
| 0.06 | 67.68 | 0.06127 | 65.54 | 1.34 mV | 7.6 mV | 87% | 88% | 153.05 pg/mL | 33.08 pg/mL | CCCCC/C=C\C/C=C\CCCCCCCCN(CCCCCC(=O)OCCCCCCCCCCC)CCOC(=O)NCc1ncc[nH]1 [Lipid 90, undecyl 6-((2-((((1H-imidazol-2-yl)methyl)carbamoyl)oxy)ethyl)((9Z,12Z)-octadeca-9,12-dien-1-yl)amino)hexanoate] | 0.20 mm | 1.27E+05 | 2.16E+05 | 8.80E+07 | 2.73E+07 | 8.50E+04 | 1.21E+05 | 95% | 85% | 24% | In vitro Viability RAW [10, 19]: 96%; AST in Sera (IU/L) 2 hours After 0.5 MPK Injection [11]: 77.50 IU/L; AST in Sera (IU/L) 24 hours After 0.5 MPK Injection [11]: 64.70 IU/L; ALT in Sera (IU/L) 2 hours After 0.5 MPK Injection [12]: 40.57 IU/L; ALT in Sera (IU/L) 24 hours After 0.5 MPK Injection [12]: 37.87 IU/L |
| 0.04 | 71.42 | 0.1822 | 57.31 | −3.13 mV | −1.439 mV | 95% | 87% | 301.91 pg/mL | 128.65 pg/mL | CCCCC/C=C\C/C=C\CCCCCCCCN(CCCCCCCC(=O)OC(CCCCCCCC)CCCCCCCC)CCOC(=O)NCCN1CCCCC1 [Lipid 127, heptadecan-9-yl 8-(((9Z,12Z)-octadeca-9,12-dien-1-yl)(2-(((2-(piperidin-1-yl)ethyl)carbamoyl)oxy)ethyl)amino)octanoate] | 0.94 mm | 2.14E+06 | 1.75E+06 | 1.14E+09 | 8.69E+07 | 4.87E+06 | 5.53E+05 | 99% | 100% | 76% | In vitro Viability RAW [10, 19]: 109%; AST in Sera (IU/L) 2 hours After 0.5 MPK Injection [11]: 161.17 IU/L; AST in Sera (IU/L) 24 hours After 0.5 MPK Injection [11]: 91.53 IU/L; ALT in Sera (IU/L) 2 hours After 0.5 MPK Injection [12]: 74.17 IU/L; ALT in Sera (IU/L) 24 hours After 0.5 MPK Injection [12]: 54.90 IU/L |
